# Laboratory results as given in patent US11752120B2, “Use of succinic acid in increasing sensitivity of bacteria to antibiotics” (SUN YAT-SEN UNIVERSITY, priority 2018, dated 2023).
# Where two headings read alike, the source gives them in different places.
# Tests used:
# [1] = system: clinical Escherichia coli YT16 and YT28; assay: Viable bacteria count / survival rate after antibiotic with or without succinic acid in M9 medium; assay type: cell-based
# Protocol: A single colony of clinical bacteria was picked from a solid LB plate and was inoculated in 5 mL LB liquid medium for culture at 37° C. and 200 rpm for 16 hours, and then was inoculated in 100 mL LB liquid medium at a ratio of 1:100 (v/v) and was cultured at 37° C. until OD600 value was 1.0. 20 mL of bacterial solution was collected and centrifuged at 8000 rpm for 5 minutes, the supernatant was cleared and bacterial cells were washed with an equal volume of 0.85% normal saline, and finally the bacterial cells were suspended with 1×M9 basic medium (containing 10 mM acetate), the OD value of the bacterial solution was adjusted to 0.5, and then 5 mL of the bacterial solution was aliquoted in a test tube for the following experimental studies.
# The survival rates of the clinical bacteria in medium with adding succinic acid and without adding succinic acid at the same antibiotic concentration were compared.
# The formula is the number of viable bacteria when different concentrations of succinic acid were added/the number of viable bacteria without adding succinic acid×100%.
# In order to study whether clinical Escherichia coli has effect on penicillin antibiotics after adding succinic acid, two clinical Escherichia coli samples of YT16 and YT28 were prepared according to step 2 in Embodiment 1, 20 mM succinic acid and 3 kinds of penicillin were added respectively, […], the number of viable bacteria was counted, and the survival rate was calculated. […]
# [2] = system: clinical Escherichia coli biofilm; assay: In vitro bactericidal assay of biofilm; assay type: cell-based; details: catheter biofilm, 6 hours; succinic acid 580 mg/kg; ampicillin 2000 mg/kg for YT16, 500 mg/kg for YT28
# Protocol: (§1) […] of clinical Escherichia coli (YT3, YT11, YT12, YT16, YT17, YT21, YT22, YT23, YT28, YT33) were picked, monocloned into LB medium, and cultured overnight, then were transferred into 2 mL fresh LB medium at 1:200, and added with a 6 mm PE-50 biological catheter that was sterilized by UV, and cultured in a 37° C. incubator for culture for 24 hours. The bacterial solution was replaced with 1 mL of LB medium daily, and the catheter was continuously cultured for 3 days. The prepared biofilm was washed 5 times with 1 mL of sterile normal saline, and then placed in a 1.5 mL EP tube.
# The assay was divided into 4 groups: normal saline control group, succinic acid group, ampicillin group, ampicillin+succinic acid group, and the catheters were treated in a shaker at 37° C. and 200 rpm. A dosage of succinic acid was 580 mg/kg, and a dosage of ampicillin was 2000 mg/kg for YT16, and 500 mg/kg for YT28. After 6 hours, ultrasonic cleaning was conducted for 15 minutes, the biofilm on the catheter was eluted and thoroughly mixed, and after gradient dilution, spot plate counting was performed. The formula for calculating the bacterial survival rate is: number of viable bacteria in each group/number of viable bacteria in the control group×100%.
# [3] = system: clinical Escherichia coli biofilm; details: mice
# Protocol: as §1
# Further, mice were used as test animals, and the prepared clinical Escherichia coli biofilm was implanted into the mouse urethra to construct a mouse chronic urinary tract infection model for conducting an in vivo clinical Escherichia coli clearance test was performed: a 6-mm PE-50 biological catheter of a clinical Escherichia coli biofilm formed by culture for 3 days was implanted into the urethra of a 5-week-old Kunming female mouse (about 20 g). After 48 hours, mice were divided into 2 groups of 5 mice each, which were the ampicillin group and the ampicillin+succinic acid group. […] 24 hours after the last injection, the catheter tube was taken into normal saline to suspend the biofilm bacteria in the ultrasound, and gradient dilution and plate counting were performed to calculate the bacterial survival rate on the catheter biofilm. The calculation formula is the number of viable bacteria in the injection substance group/number of viable bacteria in the control group×100%.
# [4] = system: clinical Escherichia coli YT16 and YT28; details: 6 hours (FIG. 9)
# Protocol: The cultured bacteria were washed and resuspended in normal saline, OD600 value was adjusted to 1.0, and 1 mL of bacterial cells were taken for ultrasonication, and after centrifugation, the supernatant was taken to determine the antibiotic content. The ampicillin ELISA rapid diagnostic kit (purchased from Shenzhen Lvshiyuan Biotechnology Co., Ltd., with a detection range of 2 to 1000 g/mL) was used for detection and the specific steps are as follows: 50 μL of sample (or standard) and 50 μL of antibody were added into a 96-well plate, mixed gently, and incubated at 25° C. for 30 minutes, and the plate was washed 4 to 5 times; 100 μL of enzyme standard was added, mixed gently, and incubated away from light at 25° C. for 30 minutes, and the plate was washed 4 to 5 times; 50 μL of substrates A and B was added respectively, mixed gently, and incubated away from light at 25° C. for 15 minutes; and finally, a stop solution was added to stop the reaction, and an enzyme-labeled instrument was set to measure the absorbance of the reaction product at 450 nm. A standard curve was drawn, with the percent absorbance of the standard as an ordinate and semi-log of the concentration of the ampicillin standard (ng/mL) as the abscissa. AMP actual concentration=sample detection concentration xdilution multiple.
# [5] = system: clinical Escherichia coli YT16 and YT28; details: 6 hours (FIG. 10)
# Protocol: A concentration of the treated bacteria was adjusted to 106 CFU/mL, 1 mL of the treated bacteria was taken and transferred into a 1.5 mL EP tube, 10 μL of 3 mM DiOC2 (3,3′-diethyloxa-carbocyanine iodide) was added, and oscillation and incubation were performed for 30 minutes after mixing sufficiently. The bacteria were transferred to a flow cytometry analysis tube before use on the machine, a FACSCalibur flow cytometer (Becton Dickinson, San Jose, Calif., USA) was used for detection, and parameter settings were performed according to the instrument operating procedures. The dye DiOC2 (3) has a green fluorescence excitation wavelength of 488 nm, an emission wavelength of 530 nm, a red fluorescence excitation wavelength of 488 nm, and an emission wavelength of 610 nm. The ratio of the red light intensity to the green light intensity indicates the intensity of the membrane potential, and calculation formula of the proton motive force (PMF) value is LOG (10^3/2*Y mean/X mean). Y mean and X mean represent red light intensity and green light intensity, respectively. Determination was performed according the instructions of the BacLight bacterial membrane potential kit (Invitrogen) kit.
# [6] = YT16, 10 mg/mL ampicillin + 1.25 mM succinic acid, 4 hours (FIG. 3)
# [7] = YT16, 10 mg/mL ampicillin + 20 mM succinic acid, 4 hours (FIG. 3)
# [8] = YT28, 10 mg/mL ampicillin + 1.25 mM succinic acid, 4 hours (FIG. 3)
# [9] = YT28, 10 mg/mL ampicillin + 20 mM succinic acid, 4 hours (FIG. 3)
smiles,measurement,setting,value
O=C(O)CCC(=O)O [succinic acid],survival rate,"[1]; YT16, 2.5 mg/mL ampicillin after adding 20 mM succinic acid, 4 hours",30.06%
same,survival rate,"[1]; YT16, 5 mg/mL ampicillin after adding 20 mM succinic acid, 4 hours",2.06%
same,bacterial survival rate,[1]; [6],69.23%
same,bactericidal efficiency,[1]; [6],1.07 times
same,bacterial survival rate,[1]; [7],1.19%
same,bactericidal efficiency,[1]; [7],61 times
same,survival rate,"[1]; YT16, 10 mg/mL ampicillin after adding 20 mM succinic acid, 4 hours (FIG. 1)",0.41%
same,survival rate,"[1]; YT16, 10 mg/mL ampicillin and 20 mM succinic acid, 1 hour (FIG. 2)",71.54%
same,survival rate,"[1]; YT16, 10 mg/mL ampicillin and 20 mM succinic acid, 4 hours (FIG. 2)",0.78%
same,survival rate,"[1]; YT16, 10 mg/mL ampicillin and 20 mM succinic acid, 7 hours (FIG. 2)",0.01%
same,increase of sensitivity to penicillin G sodium salt,"[1]; YT16, 20 mM succinic acid + 0.5 mg/mL penicillin G sodium salt, 4 hours",4.96 times
same,increase of sensitivity to penicillin G sodium salt,"[1]; YT16, 20 mM succinic acid + 0.75 mg/mL penicillin G sodium salt, 4 hours",5.13 times
same,increase of sensitivity to carbenicillin,"[1]; YT16, 20 mM succinic acid + 1.25 mg/mL carbenicillin, 4 hours",1.99 times
same,increase of sensitivity to carbenicillin,"[1]; YT16, 20 mM succinic acid + 2.5 mg/mL carbenicillin, 4 hours",11.65 times
same,increase of sensitivity to amoxicillin,"[1]; YT16, 20 mM succinic acid + 5 mg/mL amoxicillin, 4 hours",15.86 times
same,increase of sensitivity to amoxicillin,"[1]; YT16, 20 mM succinic acid + 7.5 mg/mL amoxicillin, 4 hours",3.37 times
same,bactericidal efficiency,"[1]; YT16, 20 mM succinic acid + 10 mg/mL ampicillin vs ampicillin only, at 1 hour (FIG. 2)",1.33 time
same,bactericidal efficiency,"[1]; YT16, 20 mM succinic acid + 10 mg/mL ampicillin vs ampicillin only, at 4 hours (FIG. 2)",60.66 times
same,bactericidal efficiency,"[1]; YT16, 20 mM succinic acid + 10 mg/mL ampicillin vs ampicillin only, at 7 hours (FIG. 2)",1744.19 times
same,bactericidal efficiency increase,"[1]; YT16, 20 mM succinic acid added to 2.5 mg/mL ampicillin, 4 hours, vs ampicillin alone",more than 2 times
same,bactericidal efficiency increase,"[1]; YT16, 20 mM succinic acid added to 5 mg/mL ampicillin, 4 hours, vs ampicillin alone",16.75 times
same,bactericidal efficiency increase,"[1]; YT16, 20 mM succinic acid added to 10 mg/mL ampicillin, 4 hours, vs ampicillin alone (FIG. 1)",62.25 times
same,bactericidal efficiency increase,"[1]; YT16, 20 mM succinic acid added to 20 mg/mL ampicillin, 4 hours, vs ampicillin alone",105.96 times
same,enhancement of sensitivity to different kinds of antibiotics,"[1]; YT16, 20 mM succinic acid with gentamicin, ciprofloxacin, tetracycline, erythromycin, clindamycin or rifampin, 4 hours (FIG. 6)",about 2 times
same,survival rate,"[1]; YT16, 20 mg/mL ampicillin after adding 20 mM succinic acid, 4 hours",0.12%
same,survival rate,"[1]; YT28, 2.5 mg/mL ampicillin after adding 20 mM succinic acid, 4 hours",41.62%
same,survival rate,"[1]; YT28, 5 mg/mL ampicillin after adding 20 mM succinic acid, 4 hours",12.71%
same,bacterial survival rate,[1]; [8],80.31%
same,bactericidal efficiency,[1]; [8],1.07 times
same,bacterial survival rate,[1]; [9],4.24%
same,bactericidal efficiency,[1]; [9],20 times
same,survival rate,"[1]; YT28, 10 mg/mL ampicillin after adding 20 mM succinic acid, 4 hours (FIG. 1)",1.7%
same,survival rate,"[1]; YT28, 10 mg/mL ampicillin and 20 mM succinic acid, 1 hour (FIG. 2)",66.81%
same,survival rate,"[1]; YT28, 10 mg/mL ampicillin and 20 mM succinic acid, 4 hours (FIG. 2)",1.25%
same,survival rate,"[1]; YT28, 10 mg/mL ampicillin and 20 mM succinic acid, 7 hours (FIG. 2)",0.18%
same,increase of sensitivity to penicillin G sodium salt,"[1]; YT28, 20 mM succinic acid + 0.5 mg/mL penicillin G sodium salt, 4 hours",2.66 times
same,increase of sensitivity to penicillin G sodium salt,"[1]; YT28, 20 mM succinic acid + 0.75 mg/mL penicillin G sodium salt, 4 hours",9.34 times
same,increase of sensitivity to carbenicillin,"[1]; YT28, 20 mM succinic acid + 1.25 mg/mL carbenicillin, 4 hours",1.8 times
same,increase of sensitivity to carbenicillin,"[1]; YT28, 20 mM succinic acid + 2.5 mg/mL carbenicillin, 4 hours",15.85 times
same,increase of sensitivity to amoxicillin,"[1]; YT28, 20 mM succinic acid + 5 mg/mL amoxicillin, 4 hours",13.94 times
same,increase of sensitivity to amoxicillin,"[1]; YT28, 20 mM succinic acid + 7.5 mg/mL amoxicillin, 4 hours",31.85 times
same,bactericidal efficiency,"[1]; YT28, 20 mM succinic acid + 10 mg/mL ampicillin vs ampicillin only, at 1 hour (FIG. 2)",1.44 time
same,bactericidal efficiency,"[1]; YT28, 20 mM succinic acid + 10 mg/mL ampicillin vs ampicillin only, at 4 hours (FIG. 2)",21.45 times
same,bactericidal efficiency,"[1]; YT28, 20 mM succinic acid + 10 mg/mL ampicillin vs ampicillin only, at 7 hours (FIG. 2)",78.34 times
same,bactericidal efficiency increase,"[1]; YT28, 20 mM succinic acid added to 2.5 mg/mL ampicillin, 4 hours, vs ampicillin alone",more than 1.65 times
same,bactericidal efficiency increase,"[1]; YT28, 20 mM succinic acid added to 5 mg/mL ampicillin, 4 hours, vs ampicillin alone",4.42 times
same,bactericidal efficiency increase,"[1]; YT28, 20 mM succinic acid added to 10 mg/mL ampicillin, 4 hours, vs ampicillin alone (FIG. 1)",21.06 times
same,bactericidal efficiency increase,"[1]; YT28, 20 mM succinic acid added to 20 mg/mL ampicillin, 4 hours, vs ampicillin alone",34.48 times
same,survival rate,"[1]; YT28, 20 mg/mL ampicillin after adding 20 mM succinic acid, 4 hours",0.79%
same,"clearance of clinical Escherichia coli on the biofilms, used alone",[2],cannot clear
same,bactericidal efficiency increase on catheter biofilm,"[3]; i.p. 590 mg/kg succinic acid + ampicillin (2000 or 500 mg/kg) twice a day for 3 days vs ampicillin group, 1st of the 9 strains (YT3 by order of b93)",14 times
same,bactericidal efficiency increase on catheter biofilm,"[3]; i.p. 590 mg/kg succinic acid + ampicillin twice a day for 3 days vs ampicillin group, 2nd of the 9 strains (YT11 by order of b93)",5 times
same,bactericidal efficiency increase on catheter biofilm,"[3]; i.p. 590 mg/kg succinic acid + ampicillin twice a day for 3 days vs ampicillin group, 3rd of the 9 strains (YT12 by order of b93)",53 times
same,bactericidal efficiency increase on catheter biofilm,"[3]; i.p. 590 mg/kg succinic acid + ampicillin twice a day for 3 days vs ampicillin group, 4th of the 9 strains (YT16 by order of b93)",30 times
same,bactericidal efficiency increase on catheter biofilm,"[3]; i.p. 590 mg/kg succinic acid + ampicillin twice a day for 3 days vs ampicillin group, 5th of the 9 strains (YT17 by order of b93)",5 times
same,bactericidal efficiency increase on catheter biofilm,"[3]; i.p. 590 mg/kg succinic acid + ampicillin twice a day for 3 days vs ampicillin group, 6th of the 9 strains (YT21 by order of b93)",9 times
same,bactericidal efficiency increase on catheter biofilm,"[3]; i.p. 590 mg/kg succinic acid + ampicillin twice a day for 3 days vs ampicillin group, 7th of the 9 strains (YT22 by order of b93)",38 times
same,bactericidal efficiency increase on catheter biofilm,"[3]; i.p. 590 mg/kg succinic acid + ampicillin twice a day for 3 days vs ampicillin group, 8th of the 9 strains (YT23 by order of b93)",17 times
same,bactericidal efficiency increase on catheter biofilm,"[3]; i.p. 590 mg/kg succinic acid + ampicillin twice a day for 3 days vs ampicillin group, 9th of the 9 strains (YT28 by order of b93)",53 times
same,increase of the number of antibiotics (ampicillin) in the bacteria,"[4]; YT16, ampicillin and succinic acid vs only ampicillin",5.97 times
same,increase of the number of antibiotics (ampicillin) in the bacteria,"[4]; YT28, ampicillin and succinic acid vs only ampicillin",7.99 times
same,increase of proton motive force of the bacteria,"[5]; YT16, succinic acid added vs control without",1.2 times
same,increase of proton motive force of the bacteria,"[5]; YT28, succinic acid added vs control without",1.45 times
